In patent US9238656B2, “Imidazo[4,5-b]pyridine derivatives as ALK and JAK modulators for the treatment of proliferative disorders” (priority 2012, dated 2016):
Where a name gives a salt, the structure may show the parent alone.

Legend:
[1] = biological target: baculovirus-expressed ALK (Homo sapiens, UniProt Q9UM73); test: ALK kinase inhibition, TRF/ELISA; assay type: biochemical; conditions: read-out: ALK Potency
Procedure, shortened: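 Plates were coated with GST-PLC-γ substrate (10 μg/mL) and the reaction was started with 30 ng/mL ALK, running 15 min at 37° C. Phosphotyrosine was detected by time-resolved fluorescence with Eu-labeled PT66 antibody. IC50s came from variable-slope sigmoidal fits of percent inhibition versus log concentration.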

[2] = biological target: baculovirus-expressed JAK2 kinase (Homo sapiens, UniProt O60674); test: biochemical; conditions: 0.2 μM ATP; read-out: JAK2 Potency
Procedure, shortened: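 Time-resolved fluorescence kinase assay using 15 ng/mL baculovirus-expressed JAK2 on Neutravidin-captured biotinylated 15-mer peptide substrate, reaction 20 min at room temperature. IC50 from percent inhibition versus log concentration, sigmoidal variable-slope fit.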

Chain of baculovirus-expressed ALK (Q9UM73 19-1620): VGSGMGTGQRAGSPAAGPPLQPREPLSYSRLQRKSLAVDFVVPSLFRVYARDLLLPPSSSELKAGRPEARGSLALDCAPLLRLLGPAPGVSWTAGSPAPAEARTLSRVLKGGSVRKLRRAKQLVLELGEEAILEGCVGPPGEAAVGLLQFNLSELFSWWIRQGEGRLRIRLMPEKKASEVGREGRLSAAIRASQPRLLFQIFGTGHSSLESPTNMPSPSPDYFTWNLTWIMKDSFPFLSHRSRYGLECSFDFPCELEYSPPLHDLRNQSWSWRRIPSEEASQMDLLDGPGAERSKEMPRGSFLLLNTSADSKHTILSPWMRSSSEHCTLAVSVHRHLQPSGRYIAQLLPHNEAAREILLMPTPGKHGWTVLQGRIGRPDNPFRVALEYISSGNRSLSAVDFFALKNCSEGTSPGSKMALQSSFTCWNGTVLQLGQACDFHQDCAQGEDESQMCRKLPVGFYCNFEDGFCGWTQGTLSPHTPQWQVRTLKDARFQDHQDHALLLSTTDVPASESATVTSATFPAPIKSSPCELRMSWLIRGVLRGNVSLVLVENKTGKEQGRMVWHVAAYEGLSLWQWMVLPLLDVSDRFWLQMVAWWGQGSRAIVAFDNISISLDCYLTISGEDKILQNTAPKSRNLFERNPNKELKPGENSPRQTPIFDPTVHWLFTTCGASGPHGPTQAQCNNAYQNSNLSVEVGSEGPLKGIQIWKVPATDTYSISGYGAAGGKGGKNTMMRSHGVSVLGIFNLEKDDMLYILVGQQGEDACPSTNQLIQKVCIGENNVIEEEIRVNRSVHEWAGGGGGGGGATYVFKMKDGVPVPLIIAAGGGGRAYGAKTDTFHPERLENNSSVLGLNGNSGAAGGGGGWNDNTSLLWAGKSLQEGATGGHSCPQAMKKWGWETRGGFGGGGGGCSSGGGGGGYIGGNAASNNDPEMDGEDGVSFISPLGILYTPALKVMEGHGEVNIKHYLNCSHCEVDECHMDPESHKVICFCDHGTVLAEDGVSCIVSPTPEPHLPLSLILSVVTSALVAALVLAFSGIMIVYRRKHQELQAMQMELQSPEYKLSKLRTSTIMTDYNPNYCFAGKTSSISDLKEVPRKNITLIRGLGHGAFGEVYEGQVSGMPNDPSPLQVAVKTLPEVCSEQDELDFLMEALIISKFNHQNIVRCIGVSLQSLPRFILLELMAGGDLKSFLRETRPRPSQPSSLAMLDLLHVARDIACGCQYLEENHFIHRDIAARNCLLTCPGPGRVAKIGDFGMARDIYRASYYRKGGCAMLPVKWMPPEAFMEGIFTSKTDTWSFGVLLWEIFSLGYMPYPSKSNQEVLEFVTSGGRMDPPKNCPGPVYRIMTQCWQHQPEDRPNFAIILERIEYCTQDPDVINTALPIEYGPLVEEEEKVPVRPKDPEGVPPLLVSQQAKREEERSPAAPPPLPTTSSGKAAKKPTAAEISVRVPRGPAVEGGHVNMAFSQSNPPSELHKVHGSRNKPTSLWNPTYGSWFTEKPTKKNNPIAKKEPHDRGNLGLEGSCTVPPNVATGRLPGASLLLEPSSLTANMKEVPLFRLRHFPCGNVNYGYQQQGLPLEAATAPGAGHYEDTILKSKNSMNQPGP
Chain of baculovirus-expressed JAK2 kinase (O60674 whole entry): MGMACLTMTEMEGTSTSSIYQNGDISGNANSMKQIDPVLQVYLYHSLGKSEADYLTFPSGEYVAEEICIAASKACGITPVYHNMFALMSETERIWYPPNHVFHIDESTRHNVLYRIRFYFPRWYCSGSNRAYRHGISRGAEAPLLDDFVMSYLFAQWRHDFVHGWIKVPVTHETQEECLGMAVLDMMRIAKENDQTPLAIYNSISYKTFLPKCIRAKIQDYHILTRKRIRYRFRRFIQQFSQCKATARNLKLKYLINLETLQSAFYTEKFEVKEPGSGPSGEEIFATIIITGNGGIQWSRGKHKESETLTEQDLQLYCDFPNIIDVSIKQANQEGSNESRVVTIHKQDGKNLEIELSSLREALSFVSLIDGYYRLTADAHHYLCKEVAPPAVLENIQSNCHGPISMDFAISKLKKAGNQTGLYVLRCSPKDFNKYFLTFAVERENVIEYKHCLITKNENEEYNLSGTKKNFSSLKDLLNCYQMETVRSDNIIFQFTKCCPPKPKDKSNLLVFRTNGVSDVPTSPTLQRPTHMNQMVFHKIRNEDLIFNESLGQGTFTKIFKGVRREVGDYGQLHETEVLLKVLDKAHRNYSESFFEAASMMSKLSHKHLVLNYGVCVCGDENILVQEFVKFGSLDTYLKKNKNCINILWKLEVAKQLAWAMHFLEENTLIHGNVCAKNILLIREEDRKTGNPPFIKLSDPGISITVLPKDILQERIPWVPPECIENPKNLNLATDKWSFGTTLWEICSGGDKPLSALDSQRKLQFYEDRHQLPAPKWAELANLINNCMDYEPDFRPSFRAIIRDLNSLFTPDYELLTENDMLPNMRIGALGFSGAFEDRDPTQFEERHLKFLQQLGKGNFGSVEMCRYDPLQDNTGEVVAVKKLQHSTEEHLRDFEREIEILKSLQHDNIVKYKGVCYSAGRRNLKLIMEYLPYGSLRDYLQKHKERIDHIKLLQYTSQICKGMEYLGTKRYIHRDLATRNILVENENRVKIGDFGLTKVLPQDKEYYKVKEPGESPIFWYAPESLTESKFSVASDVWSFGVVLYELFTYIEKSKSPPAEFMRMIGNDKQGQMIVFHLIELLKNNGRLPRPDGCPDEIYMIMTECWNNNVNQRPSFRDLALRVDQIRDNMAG

Row | IC50 [1] | IC50 [2] | Structure (SMILES)
1 | < 100 nM | > 10000 nM | COc1cc(N2CCOCC2)ccc1-c1nc2c(N[C@@H]3CCCC[C@H]3NS(C)(=O)=O)c(Cl)cnc2[nH]1 [Compound LXXII, N-{(1R,2R)-2-[6-Chloro-2-(2-methoxy-4-morpholin-4-yl-phenyl)-3H-imidazo[4,5-b]pyridine-7-ylamino]-cyclohexyl}-methanesulfonamide]
2 | 100 to 1000 nM | < 100 nM | N#Cc1ccc(-c2nc3c(N[C@H]4[C@@H](C(N)=O)[C@@H]5C=C[C@H]4C5)c(Br)cnc3[nH]2)cc1 [Compound CXLVII, (1S,2S,3R,4R)-3-[6-Bromo-2-(4-cyano-phenyl)-3H-imidazo[4,5-b]pyridin-7-ylamino]-bicyclo[2.2.1]hept-5-ene-2-carboxylic acid amide]
3 | 100 to 1000 nM | < 100 nM | NC(=O)[C@@H]1[C@H](Nc2c(Br)cnc3[nH]c(-c4ccc(Cl)cc4)nc23)[C@H]2C=C[C@@H]1C2 [Compound CXLIII, (1S,2S,3R,4R)-3-[6-Bromo-2-(4-chloro-phenyl)-3H-imidazo[4,5-b]pyridin-7-ylamino]-bicyclo[2.2.1]hept-5-ene-2-carboxylic acid amide]
4 | < 100 nM | < 100 nM | CN(C)c1ccc(-c2nc3c(N[C@H]4[C@@H](C(N)=O)[C@@H]5C=C[C@H]4C5)c(Cl)cnc3[nH]2)cc1 [Compound I, (1S,2S,3R,4R)-3-[6-Chloro-2-(4-dimethylamino-phenyl)-3H-imidazo[4,5-b]pyridin-7-ylamino]-bicyclo[2.2.1]hept-5-ene-2-carboxylic acid amide]
5 | < 100 nM | < 100 nM | NC(=O)[C@@H]1[C@H](Nc2c(Cl)cnc3[nH]c(-c4ccc(N5CCNCC5)cc4)nc23)[C@H]2C=C[C@@H]1C2 [Compound XV, (1S,2S,3R,4R)-3-[6-Chloro-2-(4-piperazin-1-yl-phenyl)-3H-imidazo[4,5-b]pyridin-7-ylamino]-bicyclo[2.2.1]hept-5-ene-2-carboxylic acid amide trifluoroacetic acid salt]
6 | < 100 nM | < 100 nM | COc1cc(C2=CCN(C[C@H](C)O)CC2)ccc1-c1nc2c(N[C@H]3[C@@H](C(N)=O)[C@@H]4C=C[C@H]3C4)c(Cl)cnc2[nH]1 [Compound XLVIII, (1S,2S,3R,4R)-3-(6-Chloro-2-[4-[1((S)-2-hydroxypropyl)-1,2,3,6-tetrahydro-pyridin-4-yl]-2-methoxyphenyl]-3H-imidazo[4,5-b]pyridine-7-ylamino)-bicyclo[2.2.1]hept-5-ene-2-carboxylic acid amide]
7 | < 100 nM | < 100 nM | NC(=O)[C@@H]1[C@H](Nc2c(Br)cnc3[nH]c(-c4ccc5c(c4)CCC4(CCNCC4)O5)nc23)[C@H]2C=C[C@@H]1C2 [Compound CXIV, (1S,2S,3R,4R)-3-[(6-bromo-2-spiro[chromane-2,4′-piperidine]-6-yl-3H-imidazo[4,5-b]pyridin-7-yl)amino]bicyclo[2.2.1]hept-5-ene-2-carboxamide]
8 | < 100 nM | < 100 nM | CN(C)CCNC(=O)c1cccc(-c2nc3c(N[C@H]4[C@@H](C(N)=O)[C@@H]5C=C[C@H]4C5)c(Cl)cnc3[nH]2)c1 [Compound CCXXXI, (1S,2S,3R,4R)-3-(6-chloro-2-(3-(2-(dimethylamino)ethylcarbamoyl)phenyl)-3H-imidazo[4,5-b]pyridine-7-ylamino)pyridin[2.2.1]hept-5-ene-2-carboxamide]
9 | > 10000 nM | 100 to 1000 nM | Cn1cc(-c2nc3c(N[C@H]4[C@@H](C(N)=O)[C@@H]5CC[C@H]4O5)c(Cl)cnc3[nH]2)cn1 [Compound CCV, (1S,2R,3S,4R)-3-(6-chloro-2-(1-methyl-1H-pyrazol-4-yl)-3H-imidazo[4,5-b]pyridin-7-ylamino)-7-oxabicyclo[2.2.1]heptane-2-carboxamide]
10 | < 100 nM | < 100 nM | CC(O)CN1CCN(C(=O)COc2ccc(-c3nc4c(N[C@H]5[C@@H](C(N)=O)[C@@H]6C=C[C@H]5C6)c(Cl)cnc4[nH]3)cc2)CC1 (stereo partly drawn) [Compound CCXLII, (1S,2S,3R,4R)-3-(6-chloro-2-(4-(2-(4-(2-hydroxypropyl)piperazin-1-yl)-2-oxoethoxy)phenyl)-3H-imidazo[4,5-b]pyridin-7-ylamino)bicyclo[2.2.1]hept-5-ene-2-carboxamide]
11 | 1000 to 10000 nM | < 100 nM | NC(=O)[C@@H]1[C@H](Nc2c(Cl)cnc3[nH]c(-c4cccc(C(=O)O)c4)nc23)[C@H]2C=C[C@@H]1C2 [Compound CCXVII, 3-(7-((1R,2R,3S,4S)-3-carbamoylbicyclo[2.2.1]hept-5-en-2-ylamino)-6-chloro-3H-imidazo[4,5-b]pyridin-2-yl)benzoic acid]
12 | 1000 to 10000 nM | < 100 nM | NC(=O)[C@@H]1[C@H](Nc2c(Br)cnc3[nH]c(-c4ccc(C(F)(F)F)nc4)nc23)[C@H]2C=C[C@@H]1C2 [Compound CXXXIX, (1S,2S,3R,4R)-3-[6-Bromo-2-(6-trifluoromethyl-pyridin-3-yl)-3H-imidazo[4,5-b]pyridin-7-ylamino]-bicyclo[2.2.1]hept-5-ene-2-carboxylic acid amide]
13 | 100 to 1000 nM | < 100 nM | NC(=O)[C@@H]1[C@H](Nc2c(Br)cnc3[nH]c(-c4ccc(N5CCOCC5)c(Cl)c4)nc23)[C@H]2C=C[C@@H]1C2 [Compound CXXXV, (1S,2S,3R,4R)-3-[6-Bromo-2-(3-chloro-4-morpholin-4-yl-phenyl)-3H-imidazo[4,5-b]pyridin-7-ylamino]-bicyclo[2.2.1]hept-5-ene-2-carboxylic acid amide]
14 | 100 to 1000 nM | < 100 nM | NC(=O)[C@@H]1[C@H](Nc2c(Br)cnc3[nH]c(-c4ccnc(N5CCOCC5)c4)nc23)[C@H]2C=C[C@@H]1C2 [Compound CXXXVI, (1S,2S,3R,4R)-3-[6-Bromo-2-(2-morpholin-4-yl-pyridin-4-yl)-3H-imidazo[4,5-b]pyridin-7-ylamino]-bicyclo[2.2.1]hept-5-ene-2-carboxylic acid amide]
15 | < 100 nM | < 100 nM | CC(=O)N1CCN(Cc2ccc(-c3nc4c(N[C@H]5[C@@H](C(N)=O)[C@@H]6C=C[C@H]5C6)c(Br)cnc4[nH]3)cc2)CC1 [Compound CLVI, (1S,2S,3R,4R)-3-{2-[4-(4-Acetyl-piperazin-1-ylmethyl)-phenyl]-6-bromo-3H-imidazo[4,5-b]pyridin-7-ylamino}-bicyclo[2.2.1]hept-5-ene-2-carboxylic acid amide]
16 | < 100 nM | < 100 nM | CN(C)C(=O)[C@@H]1[C@H](Nc2c(Cl)cnc3[nH]c(-c4sc(N5CCOCC5)nc4Cl)nc23)[C@H]2C=C[C@@H]1C2 [Compound CLXII, (1S,2S,3R,4R)-3-[6-Chloro-2-(4-chloro-2-morpholin-4-yl-thiazol-5-yl)-3H-imidazo[4,5-b]pyridin-7-ylamino]-bicyclo[2.2.1]hept-5-ene-2-carboxylic acid dimethylamide]
17 | < 100 nM | < 100 nM | NC(=O)[C@@H]1[C@H](Nc2c(Cl)cnc3[nH]c(-c4ccc(C(=O)N5CCNC(C(=O)O)C5)cc4)nc23)[C@H]2C=C[C@@H]1C2 (stereo partly drawn) [Compound CCXXVI, 4-(4-(7-((1R,2R,3S,4S)-3-carbamoylbicyclo[2.2.1]hept-5-en-2-ylamino)-6-chloro-3H-imidazo[4,5-b]211pyridine-2-yl)benzoyl)piperazine-2-carboxylic acid]
18 | < 100 nM | < 100 nM | C[C@H](O)CN1CCC(n2cc(-c3nc4c(N[C@H]5[C@@H](C(N)=O)[C@@H]6C=C[C@H]5C6)c(Cl)cnc4[nH]3)cn2)CC1 [Compound LIX, (1S,2S,3R,4R)-3-(6-Chloro-2-{1-[1((S)-2-hydroxypropyl)-piperidin-4-yl]-1H-pyrazol-4-yl}-3H-imidazo[4,5-b]pyridine-7-ylamino)-bicyclo[2.2.1]hept-5-ene-2-carboxylic acid amide]
19 | 100 to 1000 nM | 100 to 1000 nM | CC(C)NC(=O)[C@@H]1[C@H](Nc2c(Cl)cnc3[nH]c(-c4cnn(C)c4)nc23)[C@H]2C=C[C@@H]1C2 [Compound CLXXXVII]
20 | < 100 nM | < 100 nM | NC(=O)[C@@H]1[C@H](Nc2c(Cl)cnc3[nH]c(-c4cnc(N5CCOCC5)s4)nc23)[C@H]2C=C[C@@H]1C2 [Compound CCX, (1S,2S,3R,4R)-3-(6-chloro-2-(2-morpholinothiazol-5-yl)-3H-imidazo[4,5-b]pyridin-7-ylamino)bicyclo[2.2.1]hept-5-ene-2-carboxamide]
21 | 100 to 1000 nM | < 100 nM | CC(C)(C)OC(=O)N1CCC(n2cc(-c3nc4c(N[C@H]5[C@@H](C(N)=O)[C@@H]6C=C[C@H]5C6)c(Cl)cnc4[nH]3)cn2)CC1 [Compound L, 4-{4-[7-((1R,2R,3S,4S)-3-Carbamoyl-bicyclo[2.2.1]hept-5-en-2-ylamino)-6-chloro-3H-imidazo[4,5-b]pyridine-2-yl]-pyrazol-1-yl}-piperidine-1-carboxylic acid tert-butyl ester]
22 | < 100 nM | < 100 nM | CC(O)CN1CCC(Oc2cccc(-c3nc4c(N[C@H]5[C@@H](C(N)=O)[C@@H]6C=C[C@H]5C6)c(Cl)cnc4[nH]3)c2)CC1 (stereo partly drawn) [Compound CCLI, (1S,2S,3R,4R)-3-(6-chloro-2-(3-(1-(2-hydroxypropyl)piperidin-4-yloxy)phenyl)-3H-imidazo[4,5-b]pyridine-7-ylamino)pyridin[2.2.1]hept-5-ene-2-carboxamide]
23 | 100 to 1000 nM | < 100 nM | N#Cc1ccc(-c2nc3c(N[C@H]4[C@@H](C(N)=O)[C@@H]5C=C[C@H]4C5)c(Cl)cnc3[nH]2)cc1 [Compound CXLV, (1S,2S,3R,4R)-3-[6-Chloro-2-(4-cyano-phenyl)-3H-imidazo[4,5-b]pyridin-7-ylamino]-bicyclo[2.2.1]hept-5-ene-2-carboxylic acid amide]
